{"source": "paper PMC7973644", "about": "“Bioanalytical screening of low levels of dioxins and dioxin-like PCBs in pig meat (pork) for checking compliance with EU maximum and action levels using highly sensitive “third generation” recombinant H4L7.5c2 rat hepatoma cells” (Environmental Sciences Europe, 2021)", "key": {"[1]": {"target": "T1, aryl hydrocarbon receptor (AhR) (Mus musculus, UniProt P30561)", "T1 sequence (P30561 10-848)": "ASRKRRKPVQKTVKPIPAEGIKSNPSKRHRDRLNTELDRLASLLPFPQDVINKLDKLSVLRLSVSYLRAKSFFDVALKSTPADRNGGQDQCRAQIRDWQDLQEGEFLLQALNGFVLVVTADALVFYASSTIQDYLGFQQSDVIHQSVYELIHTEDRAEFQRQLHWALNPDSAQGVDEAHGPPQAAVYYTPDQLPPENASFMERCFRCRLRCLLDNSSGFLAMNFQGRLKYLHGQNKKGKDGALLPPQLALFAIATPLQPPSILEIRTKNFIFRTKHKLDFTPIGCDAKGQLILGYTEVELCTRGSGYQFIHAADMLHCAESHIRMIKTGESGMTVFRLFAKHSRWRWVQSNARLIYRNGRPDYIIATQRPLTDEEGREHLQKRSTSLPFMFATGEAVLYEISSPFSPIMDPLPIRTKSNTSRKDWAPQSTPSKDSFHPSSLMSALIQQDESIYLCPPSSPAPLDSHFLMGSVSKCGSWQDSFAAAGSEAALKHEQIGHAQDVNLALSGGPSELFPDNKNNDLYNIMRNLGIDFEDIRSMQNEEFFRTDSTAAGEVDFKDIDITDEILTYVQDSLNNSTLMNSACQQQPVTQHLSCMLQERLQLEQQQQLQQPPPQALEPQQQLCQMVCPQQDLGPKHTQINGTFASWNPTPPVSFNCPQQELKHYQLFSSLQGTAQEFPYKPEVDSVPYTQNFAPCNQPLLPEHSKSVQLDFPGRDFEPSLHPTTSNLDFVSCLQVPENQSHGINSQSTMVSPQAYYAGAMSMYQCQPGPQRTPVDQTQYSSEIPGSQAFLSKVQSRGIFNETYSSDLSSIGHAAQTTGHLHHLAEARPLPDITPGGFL", "T1 sequence (P53762 2-791 partner)": "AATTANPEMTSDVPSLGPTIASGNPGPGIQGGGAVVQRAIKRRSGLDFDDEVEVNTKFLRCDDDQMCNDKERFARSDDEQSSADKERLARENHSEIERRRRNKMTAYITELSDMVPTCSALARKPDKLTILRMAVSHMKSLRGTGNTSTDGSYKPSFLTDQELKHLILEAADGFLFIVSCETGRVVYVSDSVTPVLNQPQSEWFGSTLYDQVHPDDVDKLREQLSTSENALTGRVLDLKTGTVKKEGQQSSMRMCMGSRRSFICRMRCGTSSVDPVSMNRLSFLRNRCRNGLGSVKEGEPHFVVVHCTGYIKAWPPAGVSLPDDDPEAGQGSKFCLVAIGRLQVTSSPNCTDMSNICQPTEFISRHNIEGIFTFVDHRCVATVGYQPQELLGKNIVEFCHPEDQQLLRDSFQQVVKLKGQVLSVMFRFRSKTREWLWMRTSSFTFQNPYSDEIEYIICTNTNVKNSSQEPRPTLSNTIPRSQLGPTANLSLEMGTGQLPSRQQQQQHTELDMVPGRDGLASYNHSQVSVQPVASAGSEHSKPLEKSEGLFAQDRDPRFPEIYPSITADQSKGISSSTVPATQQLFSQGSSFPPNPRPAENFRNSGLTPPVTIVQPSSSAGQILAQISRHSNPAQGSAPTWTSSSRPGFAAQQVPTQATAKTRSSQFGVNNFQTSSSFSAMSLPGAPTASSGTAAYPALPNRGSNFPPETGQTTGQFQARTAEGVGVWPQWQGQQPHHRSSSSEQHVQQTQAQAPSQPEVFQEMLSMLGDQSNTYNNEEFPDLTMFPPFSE", "experiment": "CALUX luciferase reporter bioassay, H1L7.5c3 mouse hepatoma cells (20 DREs)", "assay_type": "cell-based", "details": "H1L7.5c3 mouse (20 DREs)", "description": "(§1) A “3rd generation” H4L7.5c2 recombinant rat hepatoma CALUX cell line that contains a stably transfected AhR-responsive firefly luciferase reporter gene under control of 20 dioxin responsive elements (DREs) was utilized in this study. […] H4L7.5c2 rat and other CALUX cell lines, such as H4L1.1c4 rat and […] mouse hepatoma cells (each with 4 DREs), or “3rd generation” H1L7.5c3 mouse hepatoma cells (20 DREs), are freely available for non-profit research purposes and can be obtained from Prof. Denison. These cells are also available for commercial and government screening purposes through a licensing agreement with the Hiyoshi Corporation, Omihachiman, Japan (www.calux-jp.com/english/).\n(§2) We compared both key indicators of assay performance, calibrator bias and imprecision, and the resulting working range for H4L7.5c2 rat hepatoma cells (this study) with those obtained using various other cell lines (4 DREs: H4L1.1c4 rat, DR-CALUX rat, H1L6.1c2 mouse hepatoma cells; 20 DREs: H1L7.5c3 mouse hepatoma cells) previously evaluated (Table 2). Commercially available DR-CALUX cells, a recombinant rat hepatoma (H4IIe)-based cell line (H4L1.1c10), were obtained from BioDetection Systems (The Netherlands). When using CALUX cell lines that contain 4 DREs, the lower limit of working range (LLOW), or the concentration above which results may be reported, is typically close to 1 pmol/L if both RLU-based and concentration-based criteria for bias and imprecision are fulfilled (assay working range B in Table 2). […] When utilizing H1L7.5c3 mouse hepatoma cells, which also contain 20 DREs, the LLOW equals 0.3 pmol/L, as well. However, the range in which assay concentrations match all criteria for bias and imprecision is smaller with an upper limit of working range (ULOW) of just 10 pmol/L. It follows that the “3rd generation” H4L7.5c2 rat hepatoma cells provide the most suitable working range of the assay for low sample concentrations, regardless of whether only the current EU RLU-based imprecision requirements are met or whether bias-related and concentration-based criteria are additionally observed (Table 2).\n(§3) While absolute induction is driven by the efficiency of gene expression, fold induction is the ratio between the cell response (RLU) induced by a calibration standard, or by AhR-active dioxin-like compounds present in a sample extract, and the unspecific assay background response (RLU). […] Furthermore, the Chi-square-to-degrees of freedom ratio (χ^2/DF, with χ^2 ~ WSSR) known to be a stand-alone index characterizing the quality of a model fit is provided for each cell line. […] The latter is the case for each cell line (Table 3). […] An explanation can be found in the fact that triplicate standard deviations were used as rough estimates."}, "[2]": {"target": "T2, aryl hydrocarbon receptor (AhR) (Rattus norvegicus, UniProt P41738)", "T2 construct": "endogenous in cells; host or cells: H4L7.5c2, H4L1.1c4 and DR-CALUX (H4L1.1c10, H4IIe-based) recombinant rat hepatoma cells", "T2 sequence (P41738 10-853)": "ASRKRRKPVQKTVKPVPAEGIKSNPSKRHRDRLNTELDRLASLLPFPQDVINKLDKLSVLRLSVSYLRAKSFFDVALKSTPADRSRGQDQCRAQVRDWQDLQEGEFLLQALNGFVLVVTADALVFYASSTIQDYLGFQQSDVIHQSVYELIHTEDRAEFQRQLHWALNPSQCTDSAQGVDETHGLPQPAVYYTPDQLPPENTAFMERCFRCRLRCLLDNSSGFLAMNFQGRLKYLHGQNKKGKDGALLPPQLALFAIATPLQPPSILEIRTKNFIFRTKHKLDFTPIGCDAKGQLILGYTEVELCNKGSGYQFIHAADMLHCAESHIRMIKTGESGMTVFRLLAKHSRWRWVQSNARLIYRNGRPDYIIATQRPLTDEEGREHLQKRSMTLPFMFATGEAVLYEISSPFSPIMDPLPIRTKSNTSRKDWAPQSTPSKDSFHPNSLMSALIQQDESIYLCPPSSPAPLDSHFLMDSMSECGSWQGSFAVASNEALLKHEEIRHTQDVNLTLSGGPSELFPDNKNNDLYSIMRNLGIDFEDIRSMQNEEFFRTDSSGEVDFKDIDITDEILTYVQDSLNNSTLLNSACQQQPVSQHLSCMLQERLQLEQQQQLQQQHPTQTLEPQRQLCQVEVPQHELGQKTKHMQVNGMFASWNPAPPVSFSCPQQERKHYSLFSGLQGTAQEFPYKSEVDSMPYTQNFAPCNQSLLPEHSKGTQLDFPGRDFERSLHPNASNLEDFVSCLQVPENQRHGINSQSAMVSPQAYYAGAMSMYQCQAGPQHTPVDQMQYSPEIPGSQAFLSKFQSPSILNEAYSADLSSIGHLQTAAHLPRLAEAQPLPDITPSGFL", "experiment": "CALUX luciferase reporter bioassay, H4L1.1c4 rat hepatoma cells (4 DREs)", "assay_type": "cell-based", "details": "H4L1.1c4 rat (4 DREs)", "description": "as §1, §2, §3"}, "[3]": {"design": "method as in PMID 15083163", "details": "adult humans; cited from earlier work"}, "[4]": {"target": "T1, aryl hydrocarbon receptor (AhR)", "experiment": "CALUX luciferase reporter bioassay, H1L6.1c2 mouse hepatoma cells (4 DREs)", "assay_type": "cell-based", "details": "H1L6.1c2 mouse (4 DREs)", "description": "as §2, §3"}, "[5]": {"target": "T2, aryl hydrocarbon receptor (AhR)", "experiment": "CALUX luciferase reporter bioassay, H4L7.5c2 rat hepatoma cells (20 DREs)", "assay_type": "cell-based", "description": "as §1\nExposure of H4L7.5c2 rat cells to dioxins, dioxin-like compounds, and other AhR agonists results in induction of luciferase reporter gene expression in a time-, concentration-, AhR-, and chemical-specific manner. The AhR signal transduction pathway in the CALUX bioassay and the molecular mechanism of activation of gene expression by 2,3,7,8-TCDD and related AhR agonists have been described in detail elsewhere. The level of luciferase expression in CALUX cell lines is directly related to the overall concentration of added AhR activators.\nH4L7.5c2 rat cells of defined sub-confluent density (60–70%) were harvested with trypsin and homogeneously suspended in cell culture medium (α-MEM) containing 10% (v/v) FBS. Cells were counted in a haemocytometer, then seeded in 96-well white clear bottom culture plates (Corning, New York, USA) at approximately 25,000 cells/well. After 1 h of pre-incubation at ambient conditions in a biosafety cabinet, the cells were grown for 20–24 h at 37 °C in the presence of 5% CO2.\nIndividual concentrations of a 2,3,7,8-TCDD-standard dilution series (generating assay concentrations of 0.0, 0.1, 0.3, 1.0, 3.0, 10, 30, 300, and 3000 pmol/L) and the sample extracts (both in DMSO) were first added to incubation medium and mixed, and the mixtures subsequently added in triplicate to 96-well plates containing H4L7.5c2 cells. The ability of the bioassay target compounds to adhere to the walls and bottom of the wells can lead to cells in individual wells of a triplicate being dosed with slightly different amounts of AhR-active compounds, leading to increased triplicate RSD values. Well-to-well variability of the cell response also further depends on edge effects commonly observed across 96-well microplates. For a given cell system, inhomogeneous dosing of triplicates and edge effects are some of the main drivers for the assay working range, within which triplicate RSD values are subject to defined limitations (RSD < 15%). Especially, its bottom end should be as low as possible for the present application. Each batch of plates was therefore pre-tested for satisfactorily low and reproducible edge effects. The latter was further reduced by a 1 h pre-incubation under ambient conditions in the safety cabinet immediately after seeding the cells, resulting in an even distribution of the cells in each well. The plates were then placed in an incubator on a 1.5 mm-thin copper sheet on top of the incubator shelf. Copper not only has bactericidal properties, but being a fast heat conductor, it also helps to avoid the formation of patterns in the measured cell response (another type of \"edge effects\"), caused by temperature gradients near heat-radiating walls or by occasional opening of the incubator door. For preparing the dose media, we applied a validated, fast, and reproducible pipetting procedure followed by thorough re-mixing immediately before dosing the cells only into the inner 60 wells of 96-well plates. Cell culture medium was added to the cells in the 36 outer wells to maintain a balanced atmosphere above all wells allowing homogeneous evaporation rates across the plate during incubation. […]"}, "[6]": {"target": "T2, aryl hydrocarbon receptor (AhR)", "experiment": "DR-CALUX luciferase reporter bioassay, recombinant rat hepatoma (H4IIe)-based cells (4 DREs)", "assay_type": "cell-based", "details": "DR-CALUX rat (4 DREs)", "description": "as §2, §3"}, "[7]": {"tested_on": "aryl hydrocarbon receptor (AhR)", "design": "method as in PMID 33614386, PMID 18969555, PMID 18969548", "details": "CALUX; relative to 2,3,7,8-TCDD; cited from earlier work"}, "[8]": {"details": "H4L7.5c2 rat (20 DREs), 5-PL fit by WSSR regression"}}, "data": [{"smiles": "Clc1cc2c(cc1Cl)Oc1cc(Cl)c(Cl)cc1O2", "note": "[2,3,7,8-TCDD, 2,3,7,8-tetrachlorodibenzo-p-dioxin]", "values": [{"measurement": "Fold induction at 0.3 pmol/L", "setting": "[1]; 0.3 pmol/L", "value": 1.10}, {"measurement": "Fold induction at 1.0 pmol/L", "setting": "[1]; 1.0 pmol/L", "value": 1.62}, {"measurement": "Asymmetry factor (e)", "setting": "[1]; 5-PL fit", "value": 1.15}, {"measurement": "EC70", "setting": "[1]; 5-PL fit by WSSR regression", "value": 0.00921, "unit": "nM"}, {"measurement": "Inflection point (c)", "setting": "[1]; 5-PL fit by WSSR regression", "value": 4.63, "unit": "pmol/L"}, {"measurement": "Maximum fold induction", "setting": "[1]; 5-PL fit by WSSR regression", "value": 10.5}, {"measurement": "Slope (b)", "setting": "[1]; Hill coefficient of 5-PL fit", "value": 1.48}, {"measurement": "EC50", "setting": "[1]; H1L7.5c3 mouse hepatoma CALUX cells (20 DREs), 5-PL fit by WSSR regression", "value": 0.00528, "unit": "nM"}, {"measurement": "Fold induction at 0.3 pmol/L", "setting": "[2]; 0.3 pmol/L", "value": 1.33}, {"measurement": "Fold induction at 1.0 pmol/L", "setting": "[2]; 1.0 pmol/L", "value": 2.44}, {"measurement": "Asymmetry factor (e)", "setting": "[2]; 5-PL fit", "value": 1.81}, {"measurement": "EC50", "setting": "[2]; 5-PL fit by WSSR regression", "value": 0.00552, "unit": "nM"}, {"measurement": "EC70", "setting": "[2]; 5-PL fit by WSSR regression", "value": 0.0198, "unit": "nM"}, {"measurement": "Inflection point (c)", "setting": "[2]; 5-PL fit by WSSR regression", "value": 3.67, "unit": "pmol/L"}, {"measurement": "Maximum fold induction", "setting": "[2]; 5-PL fit by WSSR regression", "value": 20.6}, {"measurement": "Slope (b)", "setting": "[2]; Hill coefficient of 5-PL fit", "value": 0.90}, {"measurement": "half-life", "setting": "[3]", "value": "3 to 10", "unit": "years"}, {"measurement": "Fold induction at 0.3 pmol/L", "setting": "[4]; 0.3 pmol/L", "value": 1.12}, {"measurement": "Fold induction at 1.0 pmol/L", "setting": "[4]; 1.0 pmol/L", "value": 1.56}, {"measurement": "Asymmetry factor (e)", "setting": "[4]; 5-PL fit", "value": 1.42}, {"measurement": "EC70", "setting": "[4]; 5-PL fit by WSSR regression", "value": 0.0505, "unit": "nM"}, {"measurement": "Inflection point (c)", "setting": "[4]; 5-PL fit by WSSR regression", "value": 15.0, "unit": "pmol/L"}, {"measurement": "Maximum fold induction", "setting": "[4]; 5-PL fit by WSSR regression", "value": 31.2}, {"measurement": "Slope (b)", "setting": "[4]; Hill coefficient of 5-PL fit", "value": 1.03}, {"measurement": "EC50", "setting": "[4]; H1L6.1c2 mouse hepatoma CALUX cells (4 DREs), 5-PL fit by WSSR regression", "value": 0.0235, "unit": "nM"}, {"measurement": "Fold induction at 0.3 pmol/L", "setting": "[5]; H4L7.5c2 rat (20 DREs), 0.3 pmol/L", "value": 1.46}, {"measurement": "Fold induction at 1.0 pmol/L", "setting": "[5]; H4L7.5c2 rat (20 DREs), 1.0 pmol/L", "value": 4.47}, {"measurement": "Asymmetry factor (e)", "setting": "[5]; H4L7.5c2 rat (20 DREs), 5-PL fit", "value": 1.51}, {"measurement": "EC50", "setting": "[5]; [8]", "value": 0.0114, "unit": "nM"}, {"measurement": "EC70", "setting": "[5]; [8]", "value": 0.0223, "unit": "nM"}, {"measurement": "Inflection point (c)", "setting": "[5]; [8]", "value": 7.22, "unit": "pmol/L"}, {"measurement": "Maximum fold induction", "setting": "[5]; [8]", "value": 136}, {"measurement": "Slope (b)", "setting": "[5]; H4L7.5c2 rat (20 DREs), Hill coefficient of 5-PL fit", "value": 1.17}, {"measurement": "Maximum response", "setting": "[5]; H4L7.5c2 rat hepatoma cells, corrected for the assay background response, 5-PL fit", "value": 4730, "unit": "RLUs"}, {"measurement": "Fold induction at 0.3 pmol/L", "setting": "[6]; 0.3 pmol/L", "value": 1.16}, {"measurement": "Fold induction at 1.0 pmol/L", "setting": "[6]; 1.0 pmol/L", "value": 1.53}, {"measurement": "Asymmetry factor (e)", "setting": "[6]; 5-PL fit", "value": 0.63}, {"measurement": "EC50", "setting": "[6]; 5-PL fit by WSSR regression", "value": 0.00789, "unit": "nM"}, {"measurement": "EC70", "setting": "[6]; 5-PL fit by WSSR regression", "value": 0.014, "unit": "nM"}, {"measurement": "Inflection point (c)", "setting": "[6]; 5-PL fit by WSSR regression", "value": 12.0, "unit": "pmol/L"}, {"measurement": "Maximum fold induction", "setting": "[6]; 5-PL fit by WSSR regression", "value": 8.75}, {"measurement": "Slope (b)", "setting": "[6]; Hill coefficient of 5-PL fit", "value": 1.70}]}, {"smiles": "Clc1ccc(-c2cc(Cl)c(Cl)c(Cl)c2)cc1Cl", "note": "[PCB 126]", "values": [{"measurement": "Relative potency (REP) or response of the cell bioassay compared to the response to 2,3,7,8-TCDD", "setting": "[7]", "value": "approximately 40%"}]}]}
